Experimental data: the supplement of paper PMC8967900

Legend:
Test in all cases: selective drug sensitivity score (sDSS, relative to normal bone marrow) (sDSS (score)); higher = more potent and effective on the cell line relative to normal bone marrow cells
Settings in all cases: 72 h
[1] = tested on: COG-LL-394h
[2] = tested on: MOLT-16
[3] = tested on: KASUMI-9
[4] = tested on: NALM-6
[5] = tested on: COG-LL-355h
[6] = tested on: CCRF-CEM
[7] = tested on: COG-LL-319h
[8] = tested on: 697
[9] = tested on: HAL-01
[10] = tested on: PEER
[11] = tested on: REH
[12] = tested on: TANOUE
[13] = tested on: COG-LL-332h
[14] = tested on: P12-ICHIKAWA
[15] = tested on: 380
[16] = tested on: TMD5
[17] = tested on: MHH-CALL-4
[18] = tested on: MHH-CALL-3
[19] = tested on: ALL-PO
[20] = tested on: MOLT-14
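Also: ALL cell lines in 384-well plates, five doses spanning 10,000-fold, each plate scaled between vehicle and 100 µmol/L benzalkonium chloride controls, sDSS an adapted area-under-curve metric.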

SMILES	selective drug sensitivity score [1]	selective drug sensitivity score [2]	selective drug sensitivity score [3]	selective drug sensitivity score [4]	selective drug sensitivity score [5]	selective drug sensitivity score [6]	selective drug sensitivity score [7]	selective drug sensitivity score [8]	selective drug sensitivity score [9]	selective drug sensitivity score [10]	selective drug sensitivity score [11]	selective drug sensitivity score [12]	selective drug sensitivity score [13]	selective drug sensitivity score [14]	selective drug sensitivity score [15]	selective drug sensitivity score [16]	selective drug sensitivity score [17]	selective drug sensitivity score [18]	selective drug sensitivity score [19]	selective drug sensitivity score [20]
CC(=O)OC[C@H]1O[C@@H]([S-])[C@H](OC(C)=O)[C@@H](OC(C)=O)[C@@H]1OC(C)=O.CCP(CC)CC.[Au+] [Auranofin] (top concentration 2500 nM)	0.14	1.74	3.94	5.34	6.34	2.74	8.24	1.94	6.44	0.74	6.04	-1.06	1.44	-0.96	12.3	3.84	7.34	4.04	0.34	0.04
CNC(=O)c1ccccc1Sc1ccc2c(/C=C/c3ccccn3)n[nH]c2c1 [Axitinib] (top concentration 10000 nM)	2.96	13.1	8.36	7.86	-0.74	9.26	7.96	14.7	-0.94	17.3	9.36	-2.94	13.3	12.1	1.56	6.76	-2.44	-2.44	9.16	8.56
Cc1c(N)nc([C@H](CC(N)=O)NC[C@H](N)C(N)=O)nc1C(=O)N[C@H](C(=O)N[C@H](C)[C@@H](O)[C@H](C)C(=O)N[C@H](C(=O)NCCc1nc(-c2nc(C(=O)NCCC[S+](C)C)cs2)cs1)[C@@H](C)O)[C@@H](O[C@@H]1O[C@@H](CO)[C@@H](O)[C@H](O)[C@@H]1O[C@H]1O[C@H](CO)[C@@H](O)[C@H](OC(N)=O)[C@@H]1O)c1c[nH]cn1 [Bleomycin] (top concentration 10000 nM)	2.24	4.54	6.24	5.74	4.14	1.04	7.84	4.74	8.44	-0.66	9.44	-1.86	8.04	-0.56	4.34	7.34	4.54	4.14	-1.76	0.94
CC(C)C[C@H](NC(=O)[C@H](Cc1ccccc1)NC(=O)c1cnccn1)B(O)O [Bortezomib] (top concentration 1000 nM)	2.42	2.02	3.22	1.82	5.92	6.52	4.02	2.62	4.12	2.32	4.92	-9.68	4.22	2.22	1.42	2.32	3.92	2.72	4.82	1.52
CCC/C=C/C=C/C(=O)O[C@H]1/C(=C/C(=O)OC)C[C@H]2C[C@H]([C@@H](C)O)OC(=O)C[C@H](O)C[C@@H]3C[C@H](OC(C)=O)C(C)(C)[C@](O)(C[C@@H]4C/C(=C/C(=O)OC)C[C@H](/C=C/C(C)(C)[C@]1(O)O2)O4)O3 [Bryostatin_1] (top concentration 100 nM)	-5.92	-7.12	25.1	-7.12	-7.12	-7.12	-7.12	12	0.08	-7.12	-7.12	-6.82	-7.12	1.68	-7.12	-7.12	-7.12	-7.12	-7.12	-7.12
CO[C@H]1CC[C@H](N2C(=O)CNc3ncc(-c4ccc(C(C)(C)O)nc4)nc32)CC1 [CC-223] (top concentration 10000 nM)	-2.28	4.12	5.12	1.42	1.12	4.42	5.12	5.02	6.32	1.02	4.22	-3.88	1.92	1.92	13	6.12	1.52	8.82	0.22	0.62
CN(C)c1cc2c(cc1Sc1nc3c(N)nccc3n1CCNCC(C)(C)C)OCO2 [CUDC-305] (top concentration 10000 nM)	-1.28	4.42	0.22	4.72	2.42	3.32	-2.48	2.92	3.32	0.42	3.32	-6.68	3.82	2.82	3.22	1.82	0.92	-11.7	7.52	5.12
CO[C@H]1C(=O)[C@]2(C)[C@@H](OC)C[C@H]3OC[C@@]3(OC(C)=O)[C@H]2[C@H](OC(=O)c2ccccc2)[C@]2(O)C[C@H](OC(=O)[C@H](O)[C@@H](NC(=O)OC(C)(C)C)c3ccccc3)C(C)=C1C2(C)C [Cabazitaxel] (top concentration 1000 nM)	6.08	26.7	18.7	15.9	2.58	20.5	16.9	23.7	11.7	23	17.9	-11.5	22.1	3.08	25.7	2.88	3.58	6.78	15.1	22.7
C=CC(=O)Nc1cc2c(Nc3ccc(F)c(Cl)c3)ncnc2cc1OCCCN1CCOCC1 [Canertinib] (top concentration 10000 nM)	1.56	1.86	3.76	-1.34	5.96	1.56	3.36	1.66	2.76	2.26	0.26	-7.24	1.86	-1.54	3.16	4.96	1.66	12.6	2.86	-0.04
CC(C)C[C@H](NC(=O)[C@H](CCc1ccccc1)NC(=O)CN1CCOCC1)C(=O)N[C@@H](Cc1ccccc1)C(=O)N[C@@H](CC(C)C)C(=O)[C@@]1(C)CO1 [Carfilzomib] (top concentration 1000 nM)	0.26	1.36	1.76	1.06	5.06	4.86	2.56	0.66	-8.84	2.56	3.16	-8.24	5.16	1.26	0.06	0.16	1.56	2.86	4.76	1.16
O=C(c1ccc(F)c(F)c1Nc1ccc(I)cc1F)N1CC(O)([C@@H]2CCCCN2)C1 [Cobimetinib] (top concentration 1000 nM)	-2.48	-3.68	-2.38	2.62	5.02	-3.58	-1.28	-2.58	0.32	-2.78	-3.68	-3.68	-3.08	-1.88	0.82	1.32	2.62	6.22	0.92	5.22
COc1c(OCCCN2CCOCC2)ccc2c1N=C(NC(=O)c1cnc(N)nc1)N1CCN=C21 [Copanlisib] (top concentration 1000 nM)	-0.82	7.68	5.98	8.18	12.2	10.2	3.18	3.48	12.1	-5.82	8.28	-6.52	2.78	-0.42	14.4	-5.32	9.28	-0.62	8.28	-3.92
Cn1c(=O)n(-c2ccc(C(C)(C)C#N)cc2)c2c3cc(-c4cnc5ccccc5c4)ccc3ncc21 [Dactolisib] (top concentration 1000 nM)	-3.94	16.1	10.3	6.36	3.46	12.9	-7.44	15.8	9.66	5.06	12.9	-2.54	5.96	4.76	17.5	4.46	4.06	3.26	4.56	0.36
O=C(/C=C/c1cccnc1)NCCCCC1CCN(C(=O)c2ccccc2)CC1 [Daporinad] (top concentration 1000 nM)	-4.44	11.2	16.2	15.6	11	8.56	9.76	16.3	7.26	8.76	15.5	7.66	17	9.16	14.7	4.46	7.66	14.6	13.8	4.66
CC(=O)N(O)CCCCCNC(=O)CCC(=O)N(O)CCCCCNC(=O)CCC(=O)N(O)CCCCCN [Deferoxamine] (top concentration 10000 nM)	0.76	6.26	1.16	5.06	1.46	6.86	7.86	6.26	8.46	2.16	2.46	3.46	10.4	3.66	1.96	-0.24	-0.84	-0.54	2.56	8.76
Cc1cc(Nc2cc(N3CCN(C)CC3)nc(/C=C/c3ccccc3)n2)n[nH]1 [ENMD-2076] (top concentration 10000 nM)	1.44	7.04	9.24	5.44	4.04	5.04	5.54	9.54	5.54	7.14	4.14	-9.16	4.34	8.24	2.54	-0.26	0.34	-2.76	10.3	6.64
Cc1cnc(Nc2ccc(OCCN3CCCC3)cc2)nc1Nc1cccc(S(=O)(=O)NC(C)(C)C)c1 [Fedratinib] (top concentration 10000 nM)	0.14	-1.06	-0.86	-1.26	3.84	-1.76	4.64	-0.76	-1.96	-0.16	-2.76	-7.06	-2.26	-2.56	-6.96	-2.26	-1.36	2.54	3.24	-0.06
